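96-well plates; 48 h exposure; 5 concentrations. Endpoints by linear interpolation between flanking doses. Not reached: highest tested concentration assigned. Here, GI50 denotes the concentration required for 50% inhibition of growth.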 Calls of active or inactive are those of the source. Cut-off read from the data, not from the text of the source: active = GI50 up to about 1.1 µM and inactive = higher.
What was measured:
Test in all cases: inhibition of tumour cell growth, NCI panel, 48 h
EKVX = test system: EKVX
SK-MEL-2 = test system: SK-MEL-2
NCI-H23 = test system: NCI-H23
HCT-116 = test system: HCT-116
CAKI-1 = test system: CAKI-1
HL-60 = test system: HL-60
CCRF-CEM = test system: CCRF-CEM
UACC-62 = test system: UACC-62
OVCAR-4 = test system: OVCAR-4
SR = test system: SR
OVCAR-8 = test system: OVCAR-8
SK-MEL-28 = test system: SK-MEL-28
SF-295 = test system: SF-295
SNB-75 = test system: SNB-75
OVCAR-5 = test system: OVCAR-5
HOP-92 = test system: HOP-92
SF-539 = test system: SF-539
HT-29 = test system: HT-29

Row | Compound | GI50 (EKVX) | GI50 (SK-MEL-2) | GI50 (NCI-H23) | GI50 (HCT-116) | GI50 (CAKI-1) | GI50 (HL-60) | GI50 (CCRF-CEM) | GI50 (UACC-62) | GI50 (OVCAR-4) | GI50 (SR) | GI50 (OVCAR-8) | GI50 (SK-MEL-28) | GI50 (SF-295) | GI50 (SNB-75) | GI50 (OVCAR-5) | GI50 (HOP-92) | GI50 (SF-539) | GI50 (HT-29)
1 | CC1(C)CCOC(Sc2ccccc2)C1 (stereo unspecified) | > 100 µM (inactive) | 30.3 µM (inactive) | 10.8 µM (inactive) | 60.4 µM (inactive) | 96.8 µM (inactive) | 10.5 µM (inactive) | 32.4 µM (inactive) | 38.5 µM (inactive) | 52.8 µM (inactive) | 39.6 µM (inactive) | > 100 µM (inactive) | > 100 µM (inactive) | 66.2 µM (inactive) | 53.2 µM (inactive) | – | – | – | –
2 | COc1ccc2[nH]c3c(c2c1)[C@H](c1ccccc1)C[C@@H]1C(=O)N(c2ccccc2)C(=O)[C@H]31 | 89.1 µM (inactive) | 55.1 µM (inactive) | – | 4.95 µM (inactive) | 25.6 µM (inactive) | – | 30.9 µM (inactive) | > 100 µM (inactive) | 16.7 µM (inactive) | 31.6 µM (inactive) | 4.93 µM (inactive) | > 100 µM (inactive) | 48.4 µM (inactive) | 20.7 µM (inactive) | > 100 µM (inactive) | 37.3 µM (inactive) | > 100 µM (inactive) | –
3 | CC(/C(=N\Nc1ccccc1)c1ccc(O)cc1)C1C(=O)Oc2ccccc21 (stereo unspecified) | > 100 µM (inactive) | > 100 µM (inactive) | – | > 100 µM (inactive) | > 100 µM (inactive) | > 100 µM (inactive) | > 100 µM (inactive) | > 100 µM (inactive) | > 100 µM (inactive) | > 100 µM (inactive) | > 100 µM (inactive) | – | > 100 µM (inactive) | 55.7 µM (inactive) | – | – | > 100 µM (inactive) | > 100 µM (inactive)
4 | N#CC(C#N)=c1[nH]c2cccc3c2-c2c(cccc2c3=C(C#N)C#N)[nH]1 | > 100 µM (inactive) | – | > 100 µM (inactive) | 80.7 µM (inactive) | > 100 µM (inactive) | > 100 µM (inactive) | 45.1 µM (inactive) | > 100 µM (inactive) | > 100 µM (inactive) | > 100 µM (inactive) | > 100 µM (inactive) | – | > 100 µM (inactive) | 53.1 µM (inactive) | > 100 µM (inactive) | > 100 µM (inactive) | > 100 µM (inactive) | > 100 µM (inactive)
5 | Cc1ccc(NC(=O)CC2SC(=N)NC2=O)cc1C (stereo unspecified) | – | > 100 µM (inactive) | > 100 µM (inactive) | > 100 µM (inactive) | > 100 µM (inactive) | > 100 µM (inactive) | – | > 100 µM (inactive) | > 100 µM (inactive) | > 100 µM (inactive) | > 100 µM (inactive) | > 100 µM (inactive) | > 100 µM (inactive) | > 100 µM (inactive) | > 100 µM (inactive) | > 100 µM (inactive) | > 100 µM (inactive) | > 100 µM (inactive)
6 | Cn1c(=O)nc2n(-c3cccc(F)c3)c3ccccc3nc-2c1=O | 13.8 µM (inactive) | 20.3 µM (inactive) | 12.1 µM (inactive) | 23.6 µM (inactive) | 27.2 µM (inactive) | – | 19.4 µM (inactive) | 3.12 µM (inactive) | 14.7 µM (inactive) | – | 23.2 µM (inactive) | – | 24.9 µM (inactive) | 24.8 µM (inactive) | 33.7 µM (inactive) | – | 25.4 µM (inactive) | 5.92 µM (inactive)
7 | Brc1ccc(N2C[N+](c3ccc(Br)cc3)=NC(c3ccccc3)=N2)cc1 | 16.7 µM (inactive) | 17 µM (inactive) | 16.1 µM (inactive) | 18.8 µM (inactive) | 18.1 µM (inactive) | 17.1 µM (inactive) | – | 14.8 µM (inactive) | 19.5 µM (inactive) | – | 21.9 µM (inactive) | 23 µM (inactive) | 15.5 µM (inactive) | 26.1 µM (inactive) | 16.4 µM (inactive) | 18.7 µM (inactive) | 15.8 µM (inactive) | 14.1 µM (inactive)
8 | COC(CN1C(=O)c2cccc3cccc(c23)C1=O)OC | 49 µM (inactive) | 1.61 µM (inactive) | > 100 µM (inactive) | 46.2 µM (inactive) | – | 72.9 µM (inactive) | 73.3 µM (inactive) | 73.1 µM (inactive) | > 100 µM (inactive) | 40.5 µM (inactive) | 71 µM (inactive) | > 100 µM (inactive) | > 100 µM (inactive) | 43.4 µM (inactive) | > 100 µM (inactive) | 73.5 µM (inactive) | 57.7 µM (inactive) | > 100 µM (inactive)
9 | CC1CC[C@@]23CCC4(C)[C@@](C=CC5[C@@]6(C)CCC(=O)C(C)(C)C6CC[C@]54C)(OC2=O)[C@@H]3[C@H]1C (stereo partly specified) | 32.1 µM (inactive) | – | 11.9 µM (inactive) | 6.68 µM (inactive) | 21.5 µM (inactive) | 1.6 µM (inactive) | 5.35 µM (inactive) | 12.2 µM (inactive) | 29.4 µM (inactive) | 6.08 µM (inactive) | 18.6 µM (inactive) | 20.4 µM (inactive) | 18.8 µM (inactive) | 23.6 µM (inactive) | – | 15.9 µM (inactive) | 24.5 µM (inactive) | 16.4 µM (inactive)
10 | CC1C=C(CCCCCCCCCCCC[C@@H](O)[C@@H]2CC[C@@H]([C@@H]3CC[C@@H](C(O)CCCCCCCCCCCCC4=C[C@H](C)OC4=O)O3)O2)C(=O)O1 (stereo partly specified) | 1.44 µM (inactive) | > 100 µM (inactive) | < 0.0422 µM (active) | – | > 100 µM (inactive) | 5.41 µM (inactive) | 5.36 µM (inactive) | > 100 µM (inactive) | – | – | 25.5 µM (inactive) | > 100 µM (inactive) | 0.078 µM (active) | > 80 µM (inactive) | > 100 µM (inactive) | 21.9 µM (inactive) | 3.23 µM (inactive) | > 79.1 µM (inactive)
11 | O=C(c1ccc(Cl)cc1Cl)C1[C@H]2C(=O)N(c3ccc(Cc4ccc(N5C(=O)[C@@H]6ON(c7ccccc7)C(C(=O)c7ccc(Cl)cc7Cl)[C@@H]6C5=O)cc4)cc3)C(=O)[C@H]2ON1c1ccccc1 (stereo partly specified) | – | > 50 µM (inactive) | > 50 µM (inactive) | > 50 µM (inactive) | > 50 µM (inactive) | > 50 µM (inactive) | > 50 µM (inactive) | > 50 µM (inactive) | > 50 µM (inactive) | > 50 µM (inactive) | > 50 µM (inactive) | > 50 µM (inactive) | > 50 µM (inactive) | > 50 µM (inactive) | > 50 µM (inactive) | – | > 50 µM (inactive) | > 50 µM (inactive)
12 | Cc1nnc(N/N=C2/C(=O)Nc3c(Cl)cc(Cl)cc32)n1N | > 100 µM (inactive) | > 100 µM (inactive) | > 100 µM (inactive) | > 100 µM (inactive) | 81.1 µM (inactive) | > 100 µM (inactive) | 57.5 µM (inactive) | > 100 µM (inactive) | > 100 µM (inactive) | 73.8 µM (inactive) | > 100 µM (inactive) | > 100 µM (inactive) | > 100 µM (inactive) | – | > 100 µM (inactive) | > 100 µM (inactive) | > 100 µM (inactive) | > 100 µM (inactive)
13 | COc1ccc(C2c3cc(OC)c(OC)cc3C(Cc3ccc([N+](=O)[O-])cc3)C2c2ccc([N+](=O)[O-])cc2)cc1OC (stereo unspecified) | > 100 µM (inactive) | > 100 µM (inactive) | > 100 µM (inactive) | 14 µM (inactive) | > 100 µM (inactive) | > 100 µM (inactive) | > 100 µM (inactive) | > 100 µM (inactive) | > 100 µM (inactive) | – | > 100 µM (inactive) | > 100 µM (inactive) | > 100 µM (inactive) | 49.7 µM (inactive) | > 100 µM (inactive) | 0.879 µM (active) | > 100 µM (inactive) | > 100 µM (inactive)
14 | COc1cccc(/C=C/c2cc(OC)c(OC)c(OC)c2)c1 | 36.2 µM (inactive) | 62.7 µM (inactive) | 30.3 µM (inactive) | 33 µM (inactive) | – | – | 33.7 µM (inactive) | 25.4 µM (inactive) | – | 35.1 µM (inactive) | 55.6 µM (inactive) | 38.5 µM (inactive) | – | 18.5 µM (inactive) | > 100 µM (inactive) | > 100 µM (inactive) | 24.4 µM (inactive) | 34.4 µM (inactive)
15 | O=C(O)CSc1nnc(COc2ccccc2)n1-c1ccccc1 | – | > 100 µM (inactive) | > 100 µM (inactive) | > 100 µM (inactive) | – | > 100 µM (inactive) | > 100 µM (inactive) | – | > 100 µM (inactive) | > 100 µM (inactive) | > 100 µM (inactive) | > 100 µM (inactive) | > 100 µM (inactive) | > 100 µM (inactive) | > 100 µM (inactive) | > 100 µM (inactive) | > 100 µM (inactive) | > 100 µM (inactive)
16 | CN1C(=O)CC(CC(=O)C2CCCCC2=O)CC1=O (stereo unspecified) | > 100 µM (inactive) | – | > 100 µM (inactive) | > 100 µM (inactive) | > 100 µM (inactive) | > 100 µM (inactive) | > 100 µM (inactive) | > 100 µM (inactive) | > 100 µM (inactive) | > 100 µM (inactive) | > 100 µM (inactive) | > 100 µM (inactive) | > 100 µM (inactive) | > 100 µM (inactive) | > 100 µM (inactive) | > 100 µM (inactive) | > 100 µM (inactive) | > 100 µM (inactive)
17 | COC(=O)CC1C[C@H](C#N)N(C(=O)c2ccccc2)C[C@@H]1CC[N+](=O)[O-] (stereo partly specified) | > 100 µM (inactive) | 0.0546 µM (active) | > 100 µM (inactive) | > 100 µM (inactive) | – | > 100 µM (inactive) | > 100 µM (inactive) | > 100 µM (inactive) | > 100 µM (inactive) | > 100 µM (inactive) | > 100 µM (inactive) | > 100 µM (inactive) | > 100 µM (inactive) | > 100 µM (inactive) | > 100 µM (inactive) | > 100 µM (inactive) | > 100 µM (inactive) | > 100 µM (inactive)

Source: ChEMBL document CHEMBL1201862, “PubChem BioAssay data set” (2004)
